The values below come from ChEMBL document CHEMBL3621068, “Synthesis and biological evaluation of a new class of quinazolinoneazoles as potential antimicrobial agents and their interactions with calf thymus DNA and human serum albumin” (Medchemcomm, 2015).

Series [1] has as its system Staphylococcus aureus. Kind of series: Antibacterial activity against methicillin-resistant Staphylococcus aureus N315 after 24 hrs by micro broth dilution assay. The format is functional. The note with it: N315, 24 h.
In series [2] the test system is Candida albicans. Kind of series: Antifungal activity against Candida albicans ATCC 10231 after 24 hrs by micro broth dilution assay. To be noted: ATCC 10231, 24 h. The format is functional.
The subject of series [3] is Bacillus sp. Kind of series: Antibacterial activity against Bacillus proteus ATCC 13315 after 24 hrs by micro broth dilution assay. Format: functional. To be noted: Bacillus sp. (in: firmicutes), ATCC 13315, 24 h.
For series [4], the system named is Staphylococcus aureus. Kind of series: Antibacterial activity against Staphylococcus aureus ATCC 25923 after 24 hrs by micro broth dilution assay. Format: functional. The note with it: ATCC 25923, 24 h.
Series [5] deals with Cyberlindnera jadinii. Kind of series: Antifungal activity against Candida utilis ATCC 9950 after 24 hrs by micro broth dilution assay. To be noted: Williopsis jadinii, ATCC 9950, 24 h. The format is functional.
Series [6] relates to Bacillus spizizenii. Kind of series: Ratio of chloromycin MIC to compound MIC for Bacillus subtilis ATCC 6633. The format is functional.
The test system of series [7] is Pseudomonas aeruginosa. Kind of series: Antibacterial activity against Pseudomonas aeruginosa ATCC 27853 a after 24 hrs by micro broth dilution assay. Format: functional. The note with it: ATCC 27853, 24 h.
The subject of series [8] is Candida. Kind of series: Antifungal activity against Candida mycoderma ATCC 9888 after 24 hrs by micro broth dilution assay. Format: functional. The note with it: ATCC 9888, 24 h.
In series [9] the test system is Saccharomyces cerevisiae. Kind of series: Antifungal activity against Beer yeast ATCC 9763 after 24 hrs by micro broth dilution assay. Format: functional. To be noted: ATCC 9763, 24 h.
Series [10] in a line: Antibacterial activity against Eberthella typhosa ATCC 14028 after 24 hrs by micro broth dilution assay. The format is functional. To be noted: ATCC 14028, 24 h.
Series [11] has as its system Escherichia coli. Kind of series: Antibacterial activity against Escherichia coli DH52 after 24 hrs by micro broth dilution assay. Format: functional. The note with it: DH52, 24 h.
In series [12] the test system is Aspergillus flavus. Kind of series: Antifungal activity against Aspergillus flavus ATCC 204304 after 24 hrs by micro broth dilution assay. Format: functional. To be noted: ATCC 204304, 24 h.
Series [13] has as its system Micrococcus luteus. Kind of series: Antibacterial activity against Micrococcus luteus ATCC 4698 after 24 hrs by micro broth dilution assay. Format: functional. To be noted: ATCC 4698, 24 h.
In series [14] the test system is Bacillus spizizenii. Kind of series: Antibacterial activity against Bacillus subtilis ATCC 6633 after 24 hrs by micro broth dilution assay. Format: functional. To be noted: ATCC 6633, 24 h.
The test system of series [15] is Aspergillus flavus. Kind of series: Ratio of fluconazole MIC to compound MIC for Aspergillus flavus ATCC 204304. The format is functional.
For series [16], the target named is Albumin (Homo sapiens, UniProt P02768). Kind of series: Binding affinity to human serum albumin assessed as fluorescence quenching at 10^-5 mol/L by fluorescence spectroscopy analysis. Format: ADME. The note with it: isolated protein, 10 µM.
Albumin, sequence (P02768 whole entry): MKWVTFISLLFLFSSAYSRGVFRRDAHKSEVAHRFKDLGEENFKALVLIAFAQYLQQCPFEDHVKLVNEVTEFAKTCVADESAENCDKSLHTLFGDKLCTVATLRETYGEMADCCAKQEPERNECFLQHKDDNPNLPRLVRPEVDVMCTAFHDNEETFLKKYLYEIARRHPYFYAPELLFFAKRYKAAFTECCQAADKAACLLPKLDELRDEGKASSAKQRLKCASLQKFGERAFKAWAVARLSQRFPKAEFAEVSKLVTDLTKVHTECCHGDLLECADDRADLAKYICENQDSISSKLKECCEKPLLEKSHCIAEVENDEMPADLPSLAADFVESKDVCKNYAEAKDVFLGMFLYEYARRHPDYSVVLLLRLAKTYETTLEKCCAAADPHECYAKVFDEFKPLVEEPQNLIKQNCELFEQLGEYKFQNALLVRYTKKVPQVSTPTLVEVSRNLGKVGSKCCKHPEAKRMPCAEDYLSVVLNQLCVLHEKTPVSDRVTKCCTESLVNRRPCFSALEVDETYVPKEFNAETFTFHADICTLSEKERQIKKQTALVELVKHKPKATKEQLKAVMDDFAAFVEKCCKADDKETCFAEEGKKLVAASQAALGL
Series [17] deals with Calf thymus DNA. Kind of series: Binding affinity to calf thymus DNA by UV-visible absorption spectroscopy. The format is nucleic-acid assay. The note with it: Bos taurus.
The subject of series [18] is Calf thymus DNA. Kind of series: Competitive binding affinity to calf thymus DNA using neutral red up to 2.0 x 10^-5 mol/L by UV-visible absorption spectroscopy. The format is nucleic-acid assay. The note with it: Bos taurus.

Converted amounts (≈) assume the structure as drawn. The source made the active and inactive calls. No cut-off for these calls is given here.

In the case of `O=c1c2ccc(F)cc2ncn1CCCCCCn1cnc([N+](=O)[O-])c1`, the MIC worked out at 180 µM (≈ 64.7 µg/mL) in series [1]; 40 µM (≈ 14.4 µg/mL) in [2]; 90 µM (≈ 32.3 µg/mL) in series [3]; 360 µM (≈ 129 µg/mL) in [4]; 360 µM (≈ 129 µg/mL) in [5]; 360 µM (≈ 129 µg/mL) in series [7]. The minimal inhibitory concentration (MIC) amounted to 40 µM (≈ 14.4 µg/mL) in series [8]; 90 µM (≈ 32.3 µg/mL) in series [9]; 360 µM (≈ 129 µg/mL) in series [10]; 180 µM (≈ 64.7 µg/mL) in [11]; 180 µM (≈ 64.7 µg/mL) in series [12]; 40 µM (≈ 14.4 µg/mL) in series [13]. For the same molecule, in series [14], the lowest concentration to inhibit growth (MIC) was 20 µM (≈ 7.19 µg/mL). Further, the Ratio in series [6] is given as 5.

On to `Cc1ncc([N+](=O)[O-])n1CCCCCCn1cnc2cc(F)ccc2c1=O`, for which the MIC in [1] is 40 µM (≈ 14.9 µg/mL); in series [2], 20 µM (≈ 7.47 µg/mL); in series [3] it was 40 µM (≈ 14.9 µg/mL); in series [4], 40 µM (≈ 14.9 µg/mL); in series [5] it was 20 µM (≈ 7.47 µg/mL); in [7] it was over 1370 µM. Also, the MIC in [8] turned out to be 20 µM (≈ 7.47 µg/mL); in series [9], 40 µM (≈ 14.9 µg/mL); in series [10], 20 µM (≈ 7.47 µg/mL); in [11] it was 40 µM (≈ 14.9 µg/mL); in series [12], 10 µM (≈ 3.73 µg/mL); in series [13] it was 40 µM (≈ 14.9 µg/mL). Also, it took 20 µM (≈ 7.47 µg/mL) to inhibit growth in series [14] (MIC). Also, the Ratio in [15] was found to be 84.

Take `O=c1c2ccc(F)cc2ncn1CCCCCn1cnc([N+](=O)[O-])c1`: the MIC in series [1] came out at 190 µM (≈ 65.6 µg/mL); in series [2] it was 90 µM (≈ 31.1 µg/mL); in series [3] it was 370 µM (≈ 128 µg/mL); in series [4], 190 µM (≈ 65.6 µg/mL); in series [5], 370 µM (≈ 128 µg/mL); in [7], 370 µM (≈ 128 µg/mL). Besides, the MIC was 190 µM (≈ 65.6 µg/mL) in series [8]; 90 µM (≈ 31.1 µg/mL) in series [9]; 370 µM (≈ 128 µg/mL) in series [10]; 370 µM (≈ 128 µg/mL) in [11]; 740 µM (≈ 256 µg/mL) in [12]; 50 µM (≈ 17.3 µg/mL) in series [13]. In series [14], this molecule displayed a minimal inhibitory concentration (MIC) of 20 µM (≈ 6.91 µg/mL). For the same molecule, the Ratio in [6] is on record as 5.

Regarding `O=c1c2ccc(Cl)cc2ncn1CCCCn1cnc([N+](=O)[O-])c1`, the MIC stood at 180 µM (≈ 62.6 µg/mL) in series [1]; 90 µM (≈ 31.3 µg/mL) in series [2]; 370 µM (≈ 129 µg/mL) in series [3]; 370 µM (≈ 129 µg/mL) in series [4]; 370 µM (≈ 129 µg/mL) in series [5]; 740 µM (≈ 257 µg/mL) in series [7]. Further, the MIC is 740 µM (≈ 257 µg/mL) in series [8]; 90 µM (≈ 31.3 µg/mL) in [9]; 370 µM (≈ 129 µg/mL) in series [10]; 740 µM (≈ 257 µg/mL) in series [11]; 740 µM (≈ 257 µg/mL) in series [12]; 50 µM (≈ 17.4 µg/mL) in [13]. In series [14], this molecule had an MIC of 50 µM (≈ 17.4 µg/mL).

As to `O=c1c2ccc(Cl)cc2ncn1CCn1cnc([N+](=O)[O-])c1`, the MIC in series [1] is 200 µM (≈ 63.9 µg/mL); in [2], 100 µM (≈ 32 µg/mL); in series [3], 400 µM (≈ 128 µg/mL); in [4] it was 800 µM (≈ 256 µg/mL); in [5] it was 400 µM (≈ 128 µg/mL); in [7], over 1600 µM. The MIC in [8] is 800 µM (≈ 256 µg/mL); in [9], 200 µM (≈ 63.9 µg/mL); in series [10] it was 400 µM (≈ 128 µg/mL); in series [11] it was 800 µM (≈ 256 µg/mL); in series [12] it was over 1600 µM; in [13], 50 µM (≈ 16 µg/mL). In [14], this molecule had an MIC of 50 µM (≈ 16 µg/mL).

As to `O=c1c2ccc(F)cc2ncn1CCCCCCCCCCn1cnc([N+](=O)[O-])c1`, the minimum inhibitory concentration (MIC) in [1] worked out at 150 µM (≈ 62.3 µg/mL); in [2] it was 40 µM (≈ 16.6 µg/mL); in series [3], 80 µM (≈ 33.2 µg/mL); in series [4], 310 µM (≈ 129 µg/mL); in series [5] it was 150 µM (≈ 62.3 µg/mL); in series [7], 80 µM (≈ 33.2 µg/mL). The MIC in [8] was 40 µM (≈ 16.6 µg/mL); in series [9], 80 µM (≈ 33.2 µg/mL); in series [10], 310 µM (≈ 129 µg/mL); in series [11] it was 150 µM (≈ 62.3 µg/mL); in series [12], 150 µM (≈ 62.3 µg/mL); in series [13], 40 µM (≈ 16.6 µg/mL). In series [14], 20 µM (≈ 8.31 µg/mL) was the least that counted as inhibitory (MIC). Also, the Ratio in series [6] was determined as 5.

With `Cc1ncc([N+](=O)[O-])n1CCn1cnc2cc(F)ccc2c1=O`, the MIC was 30 µM (≈ 9.52 µg/mL) in series [1]; 30 µM (≈ 9.52 µg/mL) in series [2]; 50 µM (≈ 15.9 µg/mL) in [3]; 30 µM (≈ 9.52 µg/mL) in series [4]; 30 µM (≈ 9.52 µg/mL) in [5]; over 1610 µM in [7]. For the same molecule, the MIC is 30 µM (≈ 9.52 µg/mL) in series [8]; 30 µM (≈ 9.52 µg/mL) in [9]; 30 µM (≈ 9.52 µg/mL) in series [10]; 30 µM (≈ 9.52 µg/mL) in series [11]; 30 µM (≈ 9.52 µg/mL) in series [12]; 50 µM (≈ 15.9 µg/mL) in series [13]. In series [14], 30 µM (≈ 9.52 µg/mL) was the least that counted as inhibitory (MIC). Besides, in series [16], the Kq was 0.1 ×10¹² L/mol/s. The molecule further returned a K in series [17] of 1.41 ×10⁴ L/mol. Moreover, the result in [18] was Active.
